In patent US6153651A, “Ortho-substituted benzoylguanidines, process for their preparation, their use as a medicament or diagnostic, and medicament comprising them” (Hoechst Aktiengesellschaft, priority 1996, dated 2000):
Counter-ions that a name gives are not always drawn.

What follows are compounds tested against T1, rabbit erythrocyte Na^+ /H^+ exchanger (Oryctolagus cuniculus, UniProt P23791) (assay: Inhibition of the rabbit erythrocyte Na^+ /H^+ exchanger (amiloride-sensitive Na^+ influx, flame photometry)). Conditions: erythrocytes of rabbits fed 2% cholesterol for six weeks; pH 7.4, 37° C., hyperosmolar salt/sucrose medium.
T1 construct: endogenous in cells; host or cells: rabbit erythrocytes (whole heparinized blood of cholesterol-fed New Zealand White rabbits, Ivanovas)
T1 sequence (P23791 whole entry): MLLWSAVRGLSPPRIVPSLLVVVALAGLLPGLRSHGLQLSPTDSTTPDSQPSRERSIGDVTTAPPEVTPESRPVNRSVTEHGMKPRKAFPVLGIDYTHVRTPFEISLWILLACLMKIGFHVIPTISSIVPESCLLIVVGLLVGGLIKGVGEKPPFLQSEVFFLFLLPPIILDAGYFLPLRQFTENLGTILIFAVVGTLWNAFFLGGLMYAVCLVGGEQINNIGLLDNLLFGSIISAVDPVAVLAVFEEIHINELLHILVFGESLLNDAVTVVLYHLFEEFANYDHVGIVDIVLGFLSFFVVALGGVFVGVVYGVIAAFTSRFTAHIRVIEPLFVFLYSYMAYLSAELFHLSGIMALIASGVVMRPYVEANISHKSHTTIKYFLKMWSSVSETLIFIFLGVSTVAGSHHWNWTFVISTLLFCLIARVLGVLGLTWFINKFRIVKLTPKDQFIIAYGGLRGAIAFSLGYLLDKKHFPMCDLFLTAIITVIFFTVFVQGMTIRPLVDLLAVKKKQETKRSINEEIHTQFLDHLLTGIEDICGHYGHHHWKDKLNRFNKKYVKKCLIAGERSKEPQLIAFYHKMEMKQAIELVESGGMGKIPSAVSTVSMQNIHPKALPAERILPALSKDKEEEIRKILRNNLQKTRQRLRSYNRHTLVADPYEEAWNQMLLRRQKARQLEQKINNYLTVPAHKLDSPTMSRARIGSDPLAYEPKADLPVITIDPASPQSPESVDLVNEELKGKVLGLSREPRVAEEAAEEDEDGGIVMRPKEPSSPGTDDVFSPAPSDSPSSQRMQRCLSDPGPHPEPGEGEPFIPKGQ
Format: cell-based, rabbit (New Zealand White)
Excerpt: Inhibition of the rabbit erythrocyte Na^+ /H^+ exchanger New Zealand White rabbits (Ivanovas) were given a standard diet containing 2% cholesterol for six weeks in order to activate Na^+ /H^+ exchange and thus render it possible to use flame photometry to determine the influx of Na+into the erythrocytes by way of Na^+ /H^+ exchange. The blood was withdrawn from the aural arteries and rendered incoagulable by adding 25 IU of potassium heparin. A part of each sample was used for determining the hematocrit in duplicate by means of centrifugation. Aliquots of in each case 100 μl were used to measure the initial content of Na^+ in the erythrocytes.
In order to determine the amiloride-sensitive sodium influx, 100 μl of each blood sample were in each case incubated, at pH 7.4 and 37° C., in 5 ml of a hyperosmolar salt/sucrose medium (mmol/l: 140 NaCl, 3 KCl, 150 sucrose, 0.1 ouabain, 20 tris(hydroxymethyl)aminomethane). After that, the erythrocytes were washed three times with an ice cold solution of MgCl2 /ouabain (mmol/l: 112 MgCl2, 0.1 ouabain) and hemolyzed in 2.0 ml of distilled water. The intracellular content of sodium was determined by flame photometry.
The net influx of Na^+ was calculated from the difference between the initial sodium values and the sodium content of the erythrocytes after incubation. The amiloride-inhibitable sodium influx was obtained from the difference in the sodium content of the erythrocytes after incubation with and without 3×10^-4 mol/l amiloride. The same procedure was used in the case of the novel compounds.

Row | SMILES | IC50 [µM]
1 | COc1cc(C(F)(F)F)cc(C(=O)N=C(N)N)c1OC [Example 1, 2,3-Dimethoxy-5-trifluoromethylbenzoylguanidine hydrochloride] | 0.053
2 | COc1c(I)cc(C(F)(F)F)cc1C(=O)N=C(N)N [Example 2, 2-Methoxy-3-iodo-5-trifluoromethylbenzoylguanidine hydrochloride] | 0.017
3 | COc1c(C(=O)N=C(N)N)cc(C(C)(C)C)cc1C(C)(C)C [Example 6, 3,5-Bis-tert-butyl-2-methoxybenzoylguanidine hydrochloride] | 1

More lines, now with the values ahead:

Row | IC50 [µM] | SMILES
4 | > 1 | COc1cc(C)ccc1C(=O)N=C(N)N [Example 5, 2-Methoxy-4-methylbenzoylguanidine hydrochloride]
5 | 0.2 | COc1cc(OC)c(C(F)(F)F)cc1C(=O)N=C(N)N [Example 7, 2,4-Dimethoxy-5-trifluoromethylbenzoylguanidine hydrochloride]
